The test system of one data set is HBsAg. Description: PHH natural infection assay, HBsAg (alphalisa). It counts as cell-based, HBV. The settings on record: Hepatitis B virus, read-out: HBsAg IC50. The method in brief:
(§1)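 Primary human hepatocytes infected with HBV at 200 GE/cell with 4% PEG8000 for 24 h, then sandwich-cultured 72 h. Compounds applied in two 72-hour treatments; supernatant HBsAg and HBeAg measured by AlphaLISA.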

For the next data set, the system named is HBeAg. Put plainly: PHH natural infection assay, HBeAg (alphalisa). It counts as cell-based, HBV. The settings on record: Hepatitis B virus, read-out: HBeAg IC50. The method in brief: as §1
A general note: In Alpha technology, singlet oxygen from a donor bead excites a nearby acceptor bead.

Data set [1] is described as follows: PHH natural infection assay, cytotoxicity (Cell Counting Kit-8). It is filed as cell-based. The settings on record: human. The method in brief: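 Primary human hepatocytes infected with HBV (200 GE/cell, 4% PEG8000) for 24 h, then sandwich-cultured 72 h. Compounds were added in two 72-h refreshes. Supernatant HBsAg/HBeAg measured by AlphaLISA and HBV DNA by quantitative fluorescence kit. Cytotoxicity read by CCK-8.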
For orientation: Tetrazolium assays rely on reduction of a dye to a coloured formazan, in cell work by metabolically active cells.

pIC50: −log10 of the molar value.

As to `O=C(Nc1ccc(-c2nc3cccnc3o2)cc1)C1CCS(=O)(=O)CC1` [Example 66, N-(4-oxazolo[5,4-b]pyridin-2-ylphenyl)-1,1-dioxo-thiane-4-carboxamide], the results for the pIC50 with HBsAg and in the data set on HBeAg were 5.41 and 5.21, respectively. Moreover, in data set [1], the 50% cytotoxic concentration (CC50) at 144 h is more than 100 µM.
For `CC1(C(=O)Nc2ccc(-c3nc4c(F)cccc4o3)cc2)COC1` [Example 51, N-[4-(4-fluoro-1,3-benzoxazol-2-yl)phenyl]-3-methyl-oxetane-3-carboxamide], in that order: 5.94, 5.91 and more than 100 µM.
`CCCC(=O)Nc1ccc(-c2nc3ccc(Cl)cc3o2)cc1` [Example 9, N-[4-(6-chloro-1,3-benzoxazol-2-yl)phenyl]butanamide]: the pIC50 in the data set with HBsAg is 5.92; in the data set on HBeAg, 5.84. Further, the CC50 at 144 h in data set [1] was more than 100 µM.
For `O=C(Nc1ccc(-c2nc3cccc(F)c3o2)cc1)C12CC(C1)C2` [Example 14, N-[4-(7-fluoro-1,3-benzoxazol-2-yl)phenyl]bicyclo[1.1.1]pentane-1-carboxamide], in that order: 6.48, 6.40 and more than 100 µM.
For `CC(O)C(=O)Nc1ccc(-c2nc3ccc(F)cc3o2)cc1` (stereo not drawn) [Example 2, N-[4-(6-fluoro-1,3-benzoxazol-2-yl)phenyl]-2-hydroxy-propanamide] the same measures were 5.94, 5.89 and more than 100 µM.
For `CC1(C(=O)Nc2ccc(-c3nc4cccnc4o3)cc2)COC1` [Example 65, 3-methyl-N-(4-oxazolo[5,4-b]pyridin-2-ylphenyl)oxetane-3-carboxamide], in that order: 5.56, 5.66 and more than 100 µM.
For `O=C(Nc1ccc(-c2nc3cccnc3o2)cc1)C1CCS(=O)(=O)C1` (stereo not drawn) [Example 63, N-(4-oxazolo[5,4-b]pyridin-2-ylphenyl)-1,1-dioxo-thiolane-3-carboxamide], the pIC50 in the data set on HBsAg is 5.60; with HBeAg, 5.32. The molecule further came in with a CC50 at 144 h in data set [1] of more than 100 µM.
For `O=C(Nc1ccc(-c2nc3ccc(Cl)cc3o2)cc1)C1CCS(=O)(=O)C1` (stereo not drawn) [Example 10, N-[4-(6-chloro-1,3-benzoxazol-2-yl)phenyl]-1,1-dioxo-thiolane-3-carboxamide] the same measures were 5.19, 5.36 and more than 100 µM.
For `COC(=O)C12CC(C(=O)Nc3ccc(-c4nc5cccc(F)c5o4)cc3)(C1)C2` [Example 38, methyl 3-[[4-(7-fluoro-1,3-benzoxazol-2-yl)phenyl]carbamoyl]bicyclo[1.1.1]pentane-1-carboxylate], in that order: 5.43, 5.40 and more than 100 µM.
For `O=C(Nc1ccc(-c2nc3c(F)cccc3o2)cc1)C12CC(C1)C2` [Example 47, N-[4-(4-fluoro-1,3-benzoxazol-2-yl)phenyl]bicyclo[1.1.1]pentane-1-carboxamide] the same measures were 5.99, 5.92 and more than 100 µM.
On to `COC(=O)Nc1ccc(-c2nc3c(F)cccc3o2)cc1` [Example 58, methyl N-[4-(4-fluoro-1,3-benzoxazol-2-yl)phenyl]carbamate], for which the pIC50 in the data set with HBsAg was 5.22; with HBeAg it was 5.06. Further, the CC50 at 144 h in data set [1] was more than 100 µM.
For `O=C(Nc1ccc(-c2nc3cccnc3o2)cc1)C1CCOC1` (stereo not drawn) [Example 67, N-(4-oxazolo[5,4-b]pyridin-2-ylphenyl)tetrahydrofuran-3-carboxamide], in that order: 5.51, 5.48 and more than 100 µM.
For `Cc1ncc(C(=O)Nc2ccc(-c3nc4c(F)cccc4o3)cc2)o1` [Example 45, N-[4-(4-fluoro-1,3-benzoxazol-2-yl)phenyl]-2-methyl-oxazole-5-carboxamide], in that order: 5.87, 5.87 and more than 100 µM.
On to `O=C(Nc1ccc(-c2nc3c(F)cccc3o2)cc1)C1CCS(=O)(=O)CC1` [Example 55, N-[4-(4-fluoro-1,3-benzoxazol-2-yl)phenyl]-1,1-dioxo-thiane-4-carboxamide], for which the pIC50 with HBsAg is 5.53; in the data set on HBeAg, 5.55. Moreover, the CC50 at 144 h in data set [1] was more than 100 µM.
For `CC(C)(C)C(=O)Nc1ccc(-c2nc3cccnc3o2)cc1` [Example 61, 2,2-dimethyl-N-(4-oxazolo[5,4-b]pyridin-2-ylphenyl)propanamide], in that order: 5.82, 5.81 and more than 100 µM.

In general, pIC50 refers to −log10 of the IC50, conventionally taken in molar units. What is called CC50 is the concentration at which the toxic effect on the cells reaches its halfway point. A higher CC50 goes with lower toxicity to the cells.

Values taken from patent US20230286930A1, “N -SUBSTITUTED 4-(1,3-ARYLOXAZOLO-2-YL)PHENYL COMPOUNDS FOR THE TREATMENT AND PROPHYLAXIS OF HEPATITIS B VIRUS INFECTION” (Hoffmann-La Roche Inc., priority 2020, published 2023).
